For data set [1], the system named is healthy human skin stimulated by a Th2 or Th17 biasing cocktail. Put plainly: Th2 and Th17 stimulation of human skin explants, IL-4 / IL-17A mRNA. The format is cell-based. As to the method:
• 1. Freshly excised healthy human skin tissue from abdominoplasties is defatted, cleaned and sectioned into 7 mm biopsies. • 2. The biopsies are placed in Transwell® inserts with the epidermis apical and exposed to air and the dermis submerged in media in the basal chamber. • 3. The biopsies are pre-treated overnight at 37° C., 5% CO2 with different compounds and controls added to the media in the basal chamber. • 4. The next day, contents of the basal chamber is replaced with fresh media containing the test compound and a stimulation cocktail for either Th2 inflammation (proprietary Medpharm cocktail) or Th17 inflammation (mix of antibodies against CD3, CD28, IL-4, IFNγ and recombinant IL-1β, IL-6, IL-21, TGF-β). • 5. The biopsies are incubated at 37° C., 5% CO2 for a further 24 hrs. • 6. After harvesting, the biopsies are cut in half, and one half is homogenized and used for RNA extraction by standard methods. IL-4 or IL-17A is assessed by RT-qPCR.

A further data set concerns the target BRDT(2) (Homo sapiens (Human), UniProt Q58F21). Put plainly: Bromodomain binding assay, BRDT(2). The following applies: single point, screened at 30 times Kd; lower numbers indicate stronger hits. As to the method: (§1) T7 phage strains displaying bromodomains were grown in parallel in 24-well blocks in an E. coli host derived from the BL21 strain. E. coli were grown to log-phase and infected with T7 phage from a frozen stock (multiplicity of infection=0.4) and incubated with shaking at 32° C. until lysis (90-150 min). The lysates were centrifuged (5,000×g) and filtered (0.2 μm) to remove cell debris. Streptavidin-coated magnetic beads were treated with biotinylated small molecule or acetylated peptide ligands for 30 min at RT to generate affinity resins for bromodomain assays. The ligated beads were blocked with excess biotin and washed with blocking buffer (SeaBlock (Pierce), 1% BSA, 0.05% Tween 20, 1 mM DTT) to remove unbound ligand and to reduce non-specific phage binding. Binding reactions were assembled by combining bromodomains, ligated affinity beads, and test compounds in 1× binding buffer (16% SeaBlock, 0.32×PBS, 0.02% BSA, 0.04% Tween 20, 0.004% Sodium azide, 7.9 mM DTT). Test compounds were prepared as 1000× stocks in 100% DMSO and subsequently diluted 1:25 in MEG. The compounds were then diluted directly into the assays such that the final concentrations of DMSO and MEG were 0.1% and 2.4%, respectively. All reactions were performed in polypropylene 384-well plates in a final volume of 0.02 ml. The assay plates were incubated at RT with shaking for 1 hr and the affinity beads were washed with wash buffer (1×PBS, 0.05% Tween 20). The beads were then re-suspended in elution buffer (1×PBS, 0.05% Tween 20, 2 μM non-biotinylated affinity ligand) and incubated at RT with shaking for 30 min. The bromodomain concentration in the eluates was measured by quantitative polymerase chain reaction (qPCR).
(§2) An 11-point 3-fold serial dilution of each test compound was prepared in 100% DMSO at 1000× final test concentration. […] Most dissociation constants were determined using a compound top concentration=10,000 nM. If the initial dissociation constant determined was <0.169 nM (the lowest concentration tested), the measurement was repeated with a serial dilution starting at a lower top concentration. […]

The target in a further data set is BRD2(2) (Homo sapiens (Human), UniProt P25440). Put plainly: Bromodomain binding assay, BRD2(2). The following applies: single point, screened at 30 times Kd; lower numbers indicate stronger hits. As to the method:
as §1, §2

The target in a further data set is BRD3(2) (Homo sapiens (Human), UniProt Q15059). Put plainly: Bromodomain binding assay, BRD3(2). To be noted: single point, screened at 30 times Kd; lower numbers indicate stronger hits. As for the experimental part: as §1, §2
BRD3(2), sequence (Q15059 306-415): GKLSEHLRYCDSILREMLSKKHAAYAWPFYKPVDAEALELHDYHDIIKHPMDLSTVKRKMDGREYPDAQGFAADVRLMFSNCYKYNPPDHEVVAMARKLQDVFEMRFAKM
The target in another data set is BRD3(1) (Homo sapiens (Human), UniProt Q15059). Put plainly: Bromodomain binding assay, BRD3(1). The following applies: single point, screened at 30 times Kd; lower numbers indicate stronger hits. As for the experimental part:
as §1, §2

The nature of data set [2]: Skin penetration (Franz cell). In kind it is in vitro ADME. The following applies: epidermis of pig/human skin after 24 hour exposure. As to the method:
A dosing solution was prepared for each test compound at a saturated concentration in an appropriate formulation mixture. The positive control, caffeine (final concentration 10 mg/mL), was prepared in 50:50 transcutol/water. Warm, degassed phosphate buffered saline (PBS) was applied to the receiving chambers of each jacketed Franz cell (1 cm containing a magnetic stirring bar). Pig/Human skin was removed from −80° C. storage and cut to size (˜2 cm^2) using a scalpel. The skin was then allowed to thaw at RT before being placed into warmed PBS for 10 min. Each skin piece was then dried before being placed onto the orifice of the Franz cell, removing any bubbles that occurred. […]
A calibration line was prepared in PBS (5000 ng/mL-0.2 ng/mL). […] All samples were quantified using UPLC-MS/MS (Waters Xevo TQ-S).
The concentration of compound present at each time point was corrected for the addition of fresh buffer. By plotting the concentration of compound vs time, the J flux and T lag could be calculated (values for caffeine should be approximately J Flux: 0.9-1.1 μg/cm/hr, Tlag: 244-257 min, ˜20% of dose present in receiving chamber after 24 hrs, mass balance 70-90%).
Skin extraction samples were corrected for dilution factor and volume of extraction solution. The quantity of dose measured in skin layers and time point samples were used to measure the mass balance of the experiment.

The next data set deals with BRDT(1) (Homo sapiens (Human), UniProt Q58F21). As to the kind of experiment: Bromodomain binding assay, BRDT(1). The following applies: single point, screened at 30 times Kd; lower numbers indicate stronger hits. As for the experimental part: as §1, §2

Some results are limits rather than exact numbers.

BRD2(2), sequence (P25440 344-453): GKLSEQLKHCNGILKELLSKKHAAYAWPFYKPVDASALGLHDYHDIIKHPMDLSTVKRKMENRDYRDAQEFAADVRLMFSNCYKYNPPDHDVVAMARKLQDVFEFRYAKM
BRD3(1), sequence (Q15059 34-140): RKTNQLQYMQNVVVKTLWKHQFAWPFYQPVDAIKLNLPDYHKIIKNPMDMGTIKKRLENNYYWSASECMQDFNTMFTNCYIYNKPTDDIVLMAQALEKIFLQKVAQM

For `Cn1cc(-c2cccc(O)c2Oc2ccccc2)c2cc[nH]c2c1=O` [Example 1, 4-(3-hydroxy-2-phenoxyphenyl)-6-methyl-1,6-dihydro-7H-pyrrolo[2,3-c]pyridin-7-one], in data set [1] (2.5 μM, Th2 biasing cocktail), the “% reduction in IL-4 mRNA (IL-4)” value was “+++ (> 75% reduction)”. Further, the “% reduction in IL-17A mRNA (IL-17)” value in data set [1] (2.5 μM, Th17 biasing cocktail) is given as “+++ (> 75% reduction)”. In data set [1] (Th2 or Th17 biasing cocktail), the “reduction of IL-4 or IL-17 levels” value was > 50%. Also, the “BRDT(2) % Ctrl” value at BRDT(2) was found to be 3.8 % Ctrl. Further, the “BRD2(2) % Ctrl” value on BRD2(2) is 0.6 % Ctrl. For the same molecule, the “BRD3(2) % Ctrl” value on BRD3(2) is 0.05 % Ctrl. Besides, the “BRD3(1) % Ctrl” value at BRD3(1) worked out at 0 % Ctrl. In data set [2], the “Epidermal concentration” value was 27 µM. Also, the “BRDT(1) % Ctrl” value at BRDT(1) is listed as 0 % Ctrl.
